Test results as given in US20100216779A1 (GLAXOSMITHKLINE LLC, priority 2007, published 2010).

Experiments:
[1] = molecular target: T1, human IGF-1R (NIH-3T3 cells over expressing human IGF-1R) (Homo sapiens, UniProt P08069); test: IGF-1R cellular autophosphorylation (DELFIA); format: cell-based; conditions: IGF-1 stimulated
T1 construct: expressed in transfected cells; host or cells: NIH-3T3 (mouse fibroblasts)
Method in brief: (§1)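 Readout: DELFIA on lysates, with anti-IGF-1R or anti-IR capture and europium anti-pTyr detection, expressed relative to 100% ligand-stimulated signal. Human IGF-1R- or IR-overexpressing NIH-3T3 cells got compound (1.5 nM–30 uM) for 2 h before 15 min IGF-1 (30 ng/mL) or insulin (3 ug/mL).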

human IGF1R (hIGF1R) = molecular target: T2, human IGF1R (hIGF1R) (Homo sapiens, UniProt P08069); test: IGF1R TR-FRET assay using peptide as the phosphoacceptor; format: biochemical; conditions: 10 μM ATP, 0.5 nM activated enzyme; for IC50: read-out: IGF-1R pIC50 (converted)
T2 construct: containing amino acid residues 957-1367 of human IGF1R; made in house; host or cells: Sf9 cells, baculovirus
T2 sequence (P08069 957-1367): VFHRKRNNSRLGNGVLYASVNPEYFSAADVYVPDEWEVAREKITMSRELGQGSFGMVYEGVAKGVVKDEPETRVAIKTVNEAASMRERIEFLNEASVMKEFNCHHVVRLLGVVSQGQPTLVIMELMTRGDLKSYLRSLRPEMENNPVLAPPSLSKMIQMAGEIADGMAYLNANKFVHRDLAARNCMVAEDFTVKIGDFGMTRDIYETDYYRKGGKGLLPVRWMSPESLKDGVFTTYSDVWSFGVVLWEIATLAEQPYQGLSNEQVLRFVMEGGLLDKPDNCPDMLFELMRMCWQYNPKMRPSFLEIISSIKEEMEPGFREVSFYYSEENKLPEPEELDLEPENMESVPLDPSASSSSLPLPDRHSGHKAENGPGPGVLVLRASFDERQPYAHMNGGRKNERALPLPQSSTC
Method: A. IR and IGF1 R Time Resolved Fluorescence Resonance Energy Transfer (TR-FRET) Assay Using Peptide as the Phosphoacceptor
Substrate phosphorylation assays are carried out as follows:
The Source of Substrate Peptide
The biotinylated substrate peptide, (sequence-Biotin-aminohexyl-AEEEEY*[…]-NH2) SEQ. ID. 1 is purchased from QCB, Inc. (Hopkinton, Mass.). Purity is determined by HPLC. The calculated molecular mass of the peptide is 2216 dalton. Tyrosine phosphorylation by human IGF1R (hIGF1R) or human IR (hIR) occurs as indicated (Y*) in the peptide sequence described. Solid peptide sample is dissolved to approximately 1 mM in DMSO, aliquoted, and stored at −20° C. until use. True peptide concentration is determined by amino acid analysis.
The Source of Enzyme: • hIGF1R: GST-rTEV-IGF-1R (957-1367) containing amino acid residues 957-1367 of human IGF1R (as annotated by National Center for Biotechnology Information (NCBI) accession number NP_000866) is purified from a baculovirus expression system in Sf9 cells using Glutathione Sepharose 4FF column chromatography followed by Sephadex-200 size exclusion column chromatography. Enzyme purity of approximately 95% is achieved. Samples, in 25 mM Tris-HCl, 250 mM NaCl, 5% glycerol, 1 mM DTT, pH 7.5, are stored at −80° C. until use. • hIR: GST-rTEV-IR(979-1382) containing amino acid residues 979-1382 of human IR (as annotated by NCBI accession number NP_000199) is expressed and purified by the same process as hIGF1R. Enzyme purity of approximately 92% is achieved. Samples, in 25 mM Tris-HCl, 250 mM NaCl, 5% glycerol, 1 mM DTT, pH 7.5, are stored at −80° C. until use.
Activation of hIGF1R and hIR by Autophosphorylation: • hIGF1R: Activation of GST-rTEV-IGF-1R(957-1367) is achieved by a 4 minute incubation of hIGF1R (2.7 μM final) with 2 mM ATP in 50 mM HEPES, 20 mM MgCl2, 0.1 mg/mL BSA, at room temperature. Autophosphorylation is stopped by addition of EDTA (to 100 mM final). Aliquoted samples are flash frozen in liquid nitrogen and stored at −80° C. until use. • hIR: Activation of […] is achieved by a 5 minute incubation of hIR (2.7 μM final) with 2 mM ATP in 100 mM HEPES, 10 mM MgCl2, 0.1 mg/mL BSA, at room temperature. Autophosphorylation is stopped by addition of EDTA (to 100 mM final). Aliquoted samples are flash frozen in liquid nitrogen and stored at −80° C. until use. • Kinase Assay of Purified hIGF1R or hIR:
Assays are performed in 384-well (Greiner, Catalog No. 784076) microtiter plates. Reaction buffer (50 mM HEPES buffer, pH 7.5; 10 mM MgCl2; 3 mM DTT; 1 mM CHAPS; 0.1 mg/mL BSA) for peptide phosphorylation (10 μl volume) contained, in final concentrations, 500 nM biotinylated peptide substrate; 10 μM ATP; and purified, activated hIGF1R or hIR (0.5 nM). Some compounds were initially assayed against IGF1R in buffer without DTT or CHAPS. […] Compounds, titrated in DMSO, are evaluated at eleven concentrations ranging from 50 μM to 0.2 nM. […] No effect on activity relative to controls without DMSO is observed for hIGF1R or IR at these DMSO amounts. Reactions are incubated for 1 hour at room temperature and are stopped by a 5 μl addition of EDTA (to 33 mM). A further addition of 5 μl detection reagents (for final 7 nM Streptavidin-APC (PerkinElmer #CR130-150), 1 nM Europium-labeled anti-phosphotyrosine monoclonal antibody (PerkinElmer #AD0067), added in reaction buffer (without DTT), is required for signal generation. After 30 minutes, signal is read on PerkinElmer Viewlux microplate imager or Wallac Victor fluorometer.
Data were fitted to the curve described by:
y=((Vmax*x)/(K+x)) where • Vmax is the upper asymptote and • K is the IC50.
The results for each tested compound were recorded as pIC50 calculated as follows: […]

human IR (hIR) = molecular target: T3, human IR (hIR) (Homo sapiens, UniProt P06213); test: IR TR-FRET assay using peptide as the phosphoacceptor; format: biochemical; conditions: 10 μM ATP, 0.5 nM activated enzyme; for IC50: read-out: IR pIC50 (converted)
T3 construct: containing amino acid residues 979-1382 of human IR; GST (N); rTEV protease site (linker between GST and kinase) (N); made in house; host or cells: Sf9 cells, baculovirus (same process as hIGF1R)
T3 sequence (P06213 979-1382): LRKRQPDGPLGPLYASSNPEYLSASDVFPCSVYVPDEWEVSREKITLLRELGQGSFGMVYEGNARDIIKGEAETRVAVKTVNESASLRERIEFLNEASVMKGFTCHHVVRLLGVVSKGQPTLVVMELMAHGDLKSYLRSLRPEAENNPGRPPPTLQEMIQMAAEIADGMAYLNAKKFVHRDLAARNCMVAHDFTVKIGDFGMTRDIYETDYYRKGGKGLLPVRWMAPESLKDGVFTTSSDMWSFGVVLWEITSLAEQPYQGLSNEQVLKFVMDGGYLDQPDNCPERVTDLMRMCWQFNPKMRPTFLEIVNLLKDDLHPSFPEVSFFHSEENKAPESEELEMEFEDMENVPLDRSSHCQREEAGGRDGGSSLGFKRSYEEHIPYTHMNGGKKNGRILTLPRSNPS
Method: Reaction buffer (50 mM HEPES buffer, pH 7.5; 10 mM MgCl2; 3 mM DTT; 1 mM CHAPS; 0.1 mg/mL BSA) for peptide phosphorylation (10 μl volume) contained, in final concentrations, 500 nM biotinylated peptide substrate; 10 μM ATP; and purified, activated hIGF1R or hIR (0.5 nM). Some compounds were initially assayed against IGF1R in buffer without DTT or CHAPS. […] Compounds, titrated in DMSO, are evaluated at eleven concentrations ranging from 50 μM to 0.2 nM. […] Reactions are incubated for 1 hour at room temperature and are stopped by a 5 μl addition of EDTA (to 33 mM). A further addition of 5 μl detection reagents (for final 7 nM Streptavidin-APC (PerkinElmer #CR130-150), 1 nM Europium-labeled anti-phosphotyrosine monoclonal antibody (PerkinElmer #AD0067), added in reaction buffer (without DTT), is required for signal generation. After 30 minutes, signal is read on PerkinElmer Viewlux microplate imager or Wallac Victor fluorometer.
The data for compound concentration responses were plotted as % Inhibition, calculated with the data reduction formula 100*(1-[(U1-C2)/(C1-C2)]), versus concentration of compound, where • U is the unknown value, • C1 is the average control value obtained for DMSO only, and
C2 is the average control value obtained for reactions stopped with EDTA at t=0.

[2] = tested on: NCI-H929 (multiple myeloma); test: Inhibition of cell proliferation, CellTiter-Glo, NCI-H929; format: cell-based; conditions: Homo sapiens, 72 h
Method in brief: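 Cells were grown in medium with 10% FBS at 37° C, 5% CO2. Cell number was read as CellTiter-Glo luminescence (cellular ATP), with untreated wells as control.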

COLO205 (colon) = test: Inhibition of cell proliferation, CellTiter-Glo, COLO205; format: cell-based; conditions: Homo sapiens, COLO 205, 72 h
Method in brief: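 Exponentially growing COLO205 cells in medium with 10% FBS were plated below 2000 cells/well at 37 °C, 5% CO2. Untreated wells served as controls.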

[3] = molecular target: T4, IR (NIH-3T3 cells over expressing human IGF-1R or IR) (Homo sapiens, UniProt P06213); test: IR cellular autophosphorylation (DELFIA); format: cell-based; conditions: NIH-3T3 cells over expressing IR, insulin stimulated
T4 construct: expressed in transfected cells; host or cells: NIH-3T3 (mouse fibroblasts)
T4 sequence (P06213 28-1382): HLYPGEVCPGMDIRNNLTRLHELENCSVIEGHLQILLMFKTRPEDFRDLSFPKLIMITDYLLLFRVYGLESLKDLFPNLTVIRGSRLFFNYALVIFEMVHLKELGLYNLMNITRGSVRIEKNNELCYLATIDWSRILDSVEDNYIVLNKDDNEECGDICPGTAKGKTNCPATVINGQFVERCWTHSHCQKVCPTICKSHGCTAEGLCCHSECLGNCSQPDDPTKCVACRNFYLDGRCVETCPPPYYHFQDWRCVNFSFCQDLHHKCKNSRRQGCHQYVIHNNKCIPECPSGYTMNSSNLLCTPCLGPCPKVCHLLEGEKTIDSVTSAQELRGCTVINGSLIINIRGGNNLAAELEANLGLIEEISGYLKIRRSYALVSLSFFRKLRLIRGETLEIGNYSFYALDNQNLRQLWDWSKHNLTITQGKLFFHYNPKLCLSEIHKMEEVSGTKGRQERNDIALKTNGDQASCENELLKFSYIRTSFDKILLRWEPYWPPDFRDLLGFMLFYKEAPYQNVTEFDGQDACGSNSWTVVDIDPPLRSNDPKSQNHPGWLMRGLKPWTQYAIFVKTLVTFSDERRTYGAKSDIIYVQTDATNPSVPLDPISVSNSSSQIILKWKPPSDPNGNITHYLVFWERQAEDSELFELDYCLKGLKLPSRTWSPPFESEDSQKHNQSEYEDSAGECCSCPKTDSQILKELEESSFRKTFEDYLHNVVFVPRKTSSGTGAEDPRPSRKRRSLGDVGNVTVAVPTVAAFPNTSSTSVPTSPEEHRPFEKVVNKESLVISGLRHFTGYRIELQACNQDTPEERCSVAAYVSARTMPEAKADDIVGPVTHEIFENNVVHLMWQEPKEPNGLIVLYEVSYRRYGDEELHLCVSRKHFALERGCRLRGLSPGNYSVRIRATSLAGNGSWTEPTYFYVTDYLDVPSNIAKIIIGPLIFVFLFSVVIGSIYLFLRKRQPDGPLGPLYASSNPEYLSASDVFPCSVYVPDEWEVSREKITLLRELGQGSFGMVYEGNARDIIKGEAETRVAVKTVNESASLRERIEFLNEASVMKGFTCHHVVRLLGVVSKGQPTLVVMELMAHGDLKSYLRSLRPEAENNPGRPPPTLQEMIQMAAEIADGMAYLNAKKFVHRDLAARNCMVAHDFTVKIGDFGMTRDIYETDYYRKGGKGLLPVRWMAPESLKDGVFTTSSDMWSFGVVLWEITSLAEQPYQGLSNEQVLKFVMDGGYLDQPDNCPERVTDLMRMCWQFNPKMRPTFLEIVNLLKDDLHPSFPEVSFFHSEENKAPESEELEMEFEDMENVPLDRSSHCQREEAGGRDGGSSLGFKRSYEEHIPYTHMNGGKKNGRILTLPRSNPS
Method in brief: as §1

T1 sequence (P08069 31-1367): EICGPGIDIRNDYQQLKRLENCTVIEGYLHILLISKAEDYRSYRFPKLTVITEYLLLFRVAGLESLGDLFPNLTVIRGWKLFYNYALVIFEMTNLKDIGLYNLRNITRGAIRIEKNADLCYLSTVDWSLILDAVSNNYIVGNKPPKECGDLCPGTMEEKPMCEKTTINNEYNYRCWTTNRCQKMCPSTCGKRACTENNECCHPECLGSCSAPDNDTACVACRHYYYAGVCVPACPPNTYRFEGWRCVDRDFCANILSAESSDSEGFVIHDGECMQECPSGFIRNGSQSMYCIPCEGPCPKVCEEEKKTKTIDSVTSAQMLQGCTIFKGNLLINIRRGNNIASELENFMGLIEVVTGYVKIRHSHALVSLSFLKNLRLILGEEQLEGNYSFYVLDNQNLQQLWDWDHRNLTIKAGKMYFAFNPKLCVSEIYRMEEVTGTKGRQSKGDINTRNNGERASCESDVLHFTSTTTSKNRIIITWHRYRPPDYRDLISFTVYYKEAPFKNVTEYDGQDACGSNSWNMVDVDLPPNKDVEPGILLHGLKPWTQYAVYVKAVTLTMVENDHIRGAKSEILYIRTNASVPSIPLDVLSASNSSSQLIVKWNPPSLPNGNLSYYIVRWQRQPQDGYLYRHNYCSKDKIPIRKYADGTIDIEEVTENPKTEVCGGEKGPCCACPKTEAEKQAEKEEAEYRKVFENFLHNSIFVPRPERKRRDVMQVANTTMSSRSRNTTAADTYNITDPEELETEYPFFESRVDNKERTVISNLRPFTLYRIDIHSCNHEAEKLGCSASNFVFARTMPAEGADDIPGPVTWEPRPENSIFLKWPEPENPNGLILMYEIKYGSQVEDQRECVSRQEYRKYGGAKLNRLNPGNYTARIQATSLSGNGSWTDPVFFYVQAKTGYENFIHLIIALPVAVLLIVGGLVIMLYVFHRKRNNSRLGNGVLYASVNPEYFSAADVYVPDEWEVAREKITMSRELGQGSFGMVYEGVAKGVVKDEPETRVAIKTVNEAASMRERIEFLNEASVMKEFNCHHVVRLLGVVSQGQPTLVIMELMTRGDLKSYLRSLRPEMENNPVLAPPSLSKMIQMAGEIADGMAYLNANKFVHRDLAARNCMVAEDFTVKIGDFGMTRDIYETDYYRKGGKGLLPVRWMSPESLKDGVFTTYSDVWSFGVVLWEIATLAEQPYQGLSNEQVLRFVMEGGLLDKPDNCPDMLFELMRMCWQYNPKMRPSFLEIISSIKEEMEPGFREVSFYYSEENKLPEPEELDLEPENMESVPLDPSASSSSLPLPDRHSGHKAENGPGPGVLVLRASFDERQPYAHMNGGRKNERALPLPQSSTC

| SMILES | IC50 [1] [nM] | IGF-1R pIC50 (human IGF1R (hIGF1R)) | IR pIC50 (human IR (hIR)) | IC50 [2] [nM] | IC50 (COLO205 (colon)) [nM] | IC50 [3] [nM] | IC50 (human IGF1R (hIGF1R)) [nM] | IC50 (human IR (hIR)) [nM] |
| --- | --- | --- | --- | --- | --- | --- | --- | --- |
| CCOc1ccc(-c2nc3ccccn3c2-c2ccnc(Nc3cc(CC)c(N4CCC(N5CCN(S(C)(=O)=O)CC5)CC4)cc3OC)n2)cc1C(=O)Nc1c(F)cccc1F [Example 206, N-(2,6-difluorophenyl)-5-(3-{2-[(5-ethyl-2-(methyloxy)-4-{4-[4-(methylsulfonyl)-1-piperazinyl]-1-piperidinyl}phenyl)amino]-4-pyrimidinyl}imidazo[1,2-a]pyridin-2-yl)-2-(ethyloxy)benzamide] | < 100 | ++ (at least one average pIC50 measurement greater than 6 against the kinase tested but no average measurement greater than pIC50 of 7) | ++ (at least one average pIC50 measurement greater than 6 against the kinase tested but no average measurement greater than pIC50 of 7) | < 250 | < 250 | < 100 | – | – |
| CCOc1cc(CCN2CCN(C)CC2)ccc1Nc1nccc(-c2c(-c3cccc(C(=O)Nc4c(F)cccc4F)c3)nc3ccccn23)n1 [Example 147, N-(2,6-difluorophenyl)-3-{3-[2-({2-(ethyloxy)-4-[2-(4-methyl-1-piperazinyl)ethyl]-phenyl}amino)-4-pyrimidinyl}imidazo[1,2-a]pyridin-2-yl]benzamide] | < 100 | – | – | – | > 1000 | < 100 | < 100 | < 100 |
| CCOc1cc(CCN2CCN(C)CC2)ccc1Nc1nccc(-c2c(-c3ccc(OC)c(C(=O)Nc4c(F)cccc4F)c3)nc3ccccn23)n1 [Example 146, N-(2,6-difluorophenyl)-5-{3-[2-({2-(ethyloxy)-4-[2-(4-methyl-1-piperazinyl)ethyl]-phenyl}amino)-4-pyrimidinyl]imidazo[1,2-a]pyridin-2-yl}-2-(methyloxy)benzamide] | > 500 | – | – | – | 250 to 1000 | > 500 | < 100 | < 100 |
| CCOc1cc(N2CCC(CCS(C)(=O)=O)CC2)c(CC)cc1Nc1nccc(-c2c(-c3ccc(OCC)c(C(=O)Nc4c(F)cccc4F)c3)nc3ccccn23)n1 [Example 208, N-(2,6-difluorophenyl)-5-(3-{2-[(5-ethyl-2-(ethyloxy)-4-{4-[2-(methylsulfonyl)ethyl]-1-piperidinyl}phenyl)amino]-4-pyrimidinyl}imidazo[1,2-a]pyridin-2-yl)-2-(ethyloxy)benzamide] | < 100 | ++ (at least one average pIC50 measurement greater than 6 against the kinase tested but no average measurement greater than pIC50 of 7) | ++ (at least one average pIC50 measurement greater than 6 against the kinase tested but no average measurement greater than pIC50 of 7) | < 250 | < 250 | < 100 | – | – |
| CCOc1cc(N2CCC(CCS(C)(=O)=O)CC2)c(C)cc1Nc1nccc(-c2c(-c3ccc(OCC)c(C(=O)Nc4c(F)cccc4F)c3)nc3ccccn23)n1 [Example 217, N-(2,6-difluorophenyl)-2-(ethyloxy)-5-(3-{2-[(2-(ethyloxy)-5-methyl-4-{4-[2-(methylsulfonyl)ethyl]-1-piperidinyl}phenyl)amino]-4-pyrimidinyl}imidazo[1,2-a]pyridin-2-yl)benzamide] | < 100 | ++ (at least one average pIC50 measurement greater than 6 against the kinase tested but no average measurement greater than pIC50 of 7) | – | < 250 | < 250 | < 100 | – | – |
| COc1cc(N2CCN(S(C)(=O)=O)CC2)c(C)cc1Nc1nccc(-c2c(-c3ccc(OC)c(C(=O)Nc4c(F)cccc4F)c3)nc3ccccn23)n1 [Example 225, N-(2,6-difluorophenyl)-5-{3-[2-({5-methyl-2-(methyloxy)-4-[4-(methylsulfonyl)-1-piperazinyl]phenyl}amino)-4-pyrimidinyl]imidazo[1,2-a]pyridin-2-yl}-2-(methyloxy)benzamide] | < 100 | – | – | < 250 | < 250 | < 100 | < 100 | < 100 |
| COc1cc(N2CCC(CCS(C)(=O)=O)CC2)c(C)cc1Nc1nccc(-c2c(-c3ccc(OC(C)C)c(C(=O)Nc4c(F)cccc4F)c3)nc3ccccn23)n1 [Example 214, N-(2,6-difluorophenyl)-2-[(1-methylethyl)oxy]-5-(3-{2-[(5-methyl-2-(methyloxy)-4-{4-[2-(methylsulfonyl)ethyl]-1-piperidinyl}phenyl)amino]-4-pyrimidinyl}imidazo[1,2-a]pyridin-2-yl)benzamide] | < 100 | ++ (at least one average pIC50 measurement greater than 6 against the kinase tested but no average measurement greater than pIC50 of 7) | – | < 250 | < 250 | < 100 | – | – |
| CCOc1ccc(-c2nc3ccccn3c2-c2ccnc(Nc3cc(Cl)c(N4CCN(CCS(C)(=O)=O)CC4)cc3OC)n2)cc1C(=O)Nc1c(F)cccc1F [Example 212] | < 100 | – | – | < 250 | < 250 | < 100 | < 100 | < 100 |
| CCOc1ccc(-c2nc3ccccn3c2-c2ccnc(Nc3cc(CC)c(N4CCC(CCS(C)(=O)=O)CC4)cc3OC)n2)cc1C(=O)Nc1c(F)cccc1F [Example 209, N-(2,6-difluorophenyl)-5-(3-{2-[(5-ethyl-2-(methyloxy)-4-{4-[2-(methylsulfonyl)ethyl]-1-piperidinyl}phenyl)amino]-4-pyrimidinyl}imidazo[1,2-a]pyridin-2-yl)-2-(ethyloxy)benzamide] | < 100 | ++ (at least one average pIC50 measurement greater than 6 against the kinase tested but no average measurement greater than pIC50 of 7) | – | < 250 | < 250 | < 100 | – | – |
